Data as given in patent publication US8242089B2, “Sphingolipids polyalkylamine conjugates for use in transfection” (Yissum Research Development Company of the Hebrew …, priority 2003, dated 2012).

Tested on: NIH 3T3 cells
Experiment: Methylene blue toxicity assay on NIH 3T3 cells
Type: cell-based
Conditions: amounts used in transfection, free assemblies or lipoplexes with luciferase plasmid, lipid/DNA charge ratios 1-16, chloride form
Method: Cytotoxicity was tested by the methylene blue (MB) staining assay [Elliott W M and Auersperg N. Biotech Histochem 68:29-35 (1993)]. In general, a known number of exponentially growing cells in 200 μL of medium were plated in 96-microwell, flat-bottomed plates. For each of the lipoplexes tested, 3 wells were used. Following 24 h of incubation in culture, 20 μL of different concentrations of various lipoplexes were added to each well containing untreated cells. Normal saline was added to the controls. Cells were exposed to lipoplex for 24 h. At the end of exposure the treated cells, as well as parallel control cells were washed and fixed by adding 50 μL of 2.5% glutaraldehyde to each well for 15 min. Fixed cells were rinsed 10 times with deionized water and once with borate buffer (0.1 M, pH 8.5), dried, and stained with MB (100 μL of 1% solution in 0.1 M borate buffer, pH 8.5) for 1 h at r. t. Stained cells were rinsed thoroughly with de-ionized water to remove any non-cell-bound dye and then dried. The MB bound to the fixed cells was extracted by incubation at 37° C. with 200 μL of 0.1 N HCl for 1 h, and the net optical density of the dye in each well was determined by a plate spectrophotometer (Labsystems Multyskan Bichromatic, Finland) at 620 nm.

## CCCCCCCCCCCCC/C=C/[C@@H](O)[C@H](COC(=O)NCCCNCCCCNCCCN)NC(=O)CCCCCCCCCCCCCCC [CCS, N-palmitoyl D-erythro sphingosyl carbamoyl-spermine]
  toxicity (living cells): non toxic
